Assays:
[1] = tested on: Cabbage Looper (Trichoplusia ni); assay: Bioassay on Cabbage Looper (CL), 128-well diet tray assay; assay type: in vivo; settings: for mortality at 0.05 µg/cm2 / mortality at 0.5 µg/cm2 / mortality at 5 µg/cm2: 168 h, second instar larvae, five to seven days, read-out: CL Percent control (or mortality); for mortality at 0.05 µg/cm2: 0.05 μg/cm^2 on artificial diet; for mortality at 0.5 µg/cm2: 0.5 μg/cm^2 on artificial diet; for mortality at 5 µg/cm2: 5 μg/cm^2 on artificial diet; for pest or weed control at 50 µg/cm2: Cabbage Looper, Table ABC, read-out: CL rating
Description: (§1) Example A: Bioassays on Beet Armyworm (Spodoptera Exigua, LAPHEG) (“BAW”), Corn Earworm (Helicoverpa Zea, HELIZE) (“CEW”), and Cabbage Looper (Trichoplusia Ni, TRIPNI) (“CL”)
(§2) Certain molecules disclosed in this document were tested against BAW, CEW, and CL using procedures described in the following examples. In the reporting of the results, the “BAW, CEW, & CL Rating Table” was used (See Table Section).
Bioassays on CL were conducted using a 128-well diet tray assay. One to five second instar CL larvae were placed in each well (3 mL) of the diet tray that had been previously filled with 1 mL of artificial diet to which 50 μg/cm^2 of the test molecule (dissolved in 50 μL of 90:10 acetone-water mixture) had been applied (to each of eight wells) and then allowed to dry. Trays were covered with a clear self-adhesive cover and held at 25° C., 14:10 light-dark for five to seven days. Percent mortality was recorded for the larvae in each well; activity in the eight wells was then averaged. The results are indicated in the table entitled “Table ABC: Biological Results” (See Table Section).
(§3) Bioassays on BAW and CL were conducted according to the procedures outlined in Example A: Bioassays on Beet Armyworm (“BAW”) and Cabbage Looper (“CL”) using the indicated concentrations.

[2] = tested on: Beet Armyworm (Spodoptera exigua); assay: Bioassay on Beet Armyworm (BAW), 128-well diet tray assay; assay type: in vivo; settings: for mortality at 0.05 µg/cm2 / mortality at 0.5 µg/cm2 / mortality at 5 µg/cm2: 168 h, second instar larvae, five to seven days, read-out: BAW Percent control (or mortality); for mortality at 0.05 µg/cm2: 0.05 μg/cm^2 on artificial diet; for mortality at 0.5 µg/cm2: 0.5 μg/cm^2 on artificial diet; for mortality at 5 µg/cm2: 5 μg/cm^2 on artificial diet; for pest or weed control at 50 µg/cm2: Beet Armyworm, Table ABC, read-out: BAW rating
Description: as §1, §2
Bioassays on BAW were conducted using a 128-well diet tray assay. One to five second instar BAW larvae were placed in each well (3 mL) of the diet tray that had been previously filled with 1 mL of artificial diet to which 50 μg/cm^2 of the test molecule (dissolved in 50 μL of 90:10 acetone-water mixture) had been applied (to each of eight wells) and then allowed to dry. Trays were covered with a clear self-adhesive cover and held at 25° C., 14:10 light-dark for five to seven days. Percent mortality was recorded for the larvae in each well; activity in the eight wells was then averaged. The results are indicated in the table entitled “Table ABC: Biological Results” (See Table Section).
as §3

SMILES: O=C(CNC(=O)c1ccc(/C(F)=C/C(c2cc(Cl)c(Cl)c(Cl)c2)C(F)(F)F)cc1Br)NCC(F)(F)F (centres unmarked) [F19, (Z)-2-Bromo-N-(2-oxo-2-((2,2,2-trifluoroethyl)amino)ethyl)-4-(1,4,4,4-tetrafluoro-3-(3,4,5-trichlorophenyl)but-1-en-1-yl)benzamide]
- mortality at 0.05 µg/cm2 [1]: 100%
- mortality at 0.5 µg/cm2 [1]: 100%
- mortality at 5 µg/cm2 [1]: 100%
- pest or weed control at 50 µg/cm2 [1]: 50 to 100%
- mortality at 0.05 µg/cm2 [2]: 100%
- mortality at 0.5 µg/cm2 [2]: 100%
- mortality at 5 µg/cm2 [2]: 100%
- pest or weed control at 50 µg/cm2 [2]: 50 to 100%

SMILES: CCN(CC(F)(F)F)C(=O)[C@@H](C)NC(=O)c1ccc(/C(F)=C/C(c2cc(Cl)c(Cl)c(Cl)c2)C(F)(F)F)cc1C(F)(F)F (stereo partly drawn) [F20, N—((R)-1-(Ethyl(2,2,2-trifluoroethyl)amino)-1-oxopropan-2-yl)-4-((Z)-1,4,4,4-tetrafluoro-3-(3,4,5-trichlorophenyl)but-1-en-1-yl)-2-(trifluoromethyl)benzamide]
- pest or weed control at 50 µg/cm2 [1]: 50 to 100%
- pest or weed control at 50 µg/cm2 [2]: 50 to 100%

SMILES: O=C(NC1(C(=O)NCC(F)(F)F)CC1)c1ccc(/C(F)=C/C(c2cc(Cl)c(Cl)c(Cl)c2)C(F)(F)F)cc1Br (centres unmarked) [F21, (Z)-2-Bromo-4-(1,4,4,4-tetrafluoro-3-(3,4,5-trichlorophenyl)but-1-en-1-yl)-N-(1-((2,2,2-trifluoroethyl)carbamoyl)cyclopropyl)benzamide]
- pest or weed control at 50 µg/cm2 [1]: 50 to 100%
- pest or weed control at 50 µg/cm2 [2]: 50 to 100%

SMILES: O=C(CNC(=O)c1ccc(/C(F)=C/C(c2cc(Cl)c(Cl)c(Cl)c2)C(F)(F)F)cc1Cl)NCC(F)(F)F (centres unmarked) [F22, (Z)-2-Chloro-N-(2-oxo-2-((2,2,2-trifluoroethyl)amino)ethyl)-4-(1,4,4,4-tetrafluoro-3-(3,4,5-trichlorophenyl)but-1-en-1-yl)benzamide]
- mortality at 0.05 µg/cm2 [1]: 100%
- mortality at 0.5 µg/cm2 [1]: 100%
- mortality at 5 µg/cm2 [1]: 100%
- pest or weed control at 50 µg/cm2 [1]: 50 to 100%
- mortality at 0.05 µg/cm2 [2]: 100%
- mortality at 0.5 µg/cm2 [2]: 100%
- mortality at 5 µg/cm2 [2]: 100%
- pest or weed control at 50 µg/cm2 [2]: 50 to 100%

SMILES: C[C@@H](NC(=O)c1ccc(/C(F)=C/C(c2cc(Cl)c(Cl)c(Cl)c2)C(F)(F)F)cc1Cl)C(=O)NCC(F)(F)F (stereo partly drawn) [F23, 2-Chloro-N—((R)-1-oxo-1-((2,2,2-trifluoroethyl)amino)propan-2-yl)-4-((Z)-1,4,4,4-tetrafluoro-3-(3,4,5-trichlorophenyl)but-1-en-1-yl)benzamide]
- mortality at 0.05 µg/cm2 [1]: 100%
- mortality at 0.5 µg/cm2 [1]: 100%
- mortality at 5 µg/cm2 [1]: 100%
- pest or weed control at 50 µg/cm2 [1]: 50 to 100%
- mortality at 0.05 µg/cm2 [2]: 81%
- mortality at 0.5 µg/cm2 [2]: 100%
- mortality at 5 µg/cm2 [2]: 100%
- pest or weed control at 50 µg/cm2 [2]: 50 to 100%

SMILES: CON(CC(F)(F)F)C(=O)[C@@H](C)NC(=O)c1ccc(/C(F)=C/C(c2cc(Cl)c(Cl)c(Cl)c2)C(F)(F)F)cc1C(F)(F)F (stereo partly drawn) [F24, N—((R)-1-(Methoxy(2,2,2-trifluoroethyl)amino)-1-oxopropan-2-yl)-4-((Z)-1,4,4,4-tetrafluoro-3-(3,4,5-trichlorophenyl)but-1-en-1-yl)-2-(trifluoromethyl)benzamide]
- pest or weed control at 50 µg/cm2 [1]: 50 to 100%
- pest or weed control at 50 µg/cm2 [2]: 50 to 100%

SMILES: CCN(CC(F)(F)F)C(=O)[C@@H](C)NC(=O)c1ccc(/C(F)=C/C(c2cc(Cl)c(Cl)c(Cl)c2)C(F)(F)F)cc1Br (stereo partly drawn) [F25, 2-Bromo-N—((R)-1-(ethyl(2,2,2-trifluoroethyl)amino)-1-oxopropan-2-yl)-4-((Z)-1,4,4,4-tetrafluoro-3-(3,4,5-trichlorophenyl)but-1-en-1-yl)benzamide]
- pest or weed control at 50 µg/cm2 [1]: 50 to 100%
- pest or weed control at 50 µg/cm2 [2]: 50 to 100%

SMILES: Cc1cc(/C(F)=C/C(c2cc(Cl)c(Cl)c(Cl)c2)C(C)(F)F)ccc1C(=O)N[C@H](C)C(=O)NCC(F)(F)F (stereo partly drawn) [F26, 2-Methyl-N—((R)-1-oxo-1-((2,2,2-trifluoroethyl)amino)propan-2-yl)-4-((Z)-1,4,4-trifluoro-3-(3,4,5-trichlorophenyl)pent-1-en-1-yl)benzamide]
- pest or weed control at 50 µg/cm2 [1]: 50 to 100%
- pest or weed control at 50 µg/cm2 [2]: 50 to 100%

SMILES: C=CCON(CC(F)(F)F)C(=O)[C@@H](C)NC(=O)c1ccc(/C(F)=C/C(c2cc(Cl)c(Cl)c(Cl)c2)C(F)(F)F)cc1C(F)(F)F (stereo partly drawn) [F27, N—((R)-1-((Allyloxy)(2,2,2-trifluoroethyl)amino)-1-oxopropan-2-yl)-4-((Z)-1,4,4,4-tetrafluoro-3-(3,4,5-trichlorophenyl)but-1-en-1-yl)-2-(trifluoromethyl)benzamide]
- pest or weed control at 50 µg/cm2 [1]: 50 to 100%
- pest or weed control at 50 µg/cm2 [2]: 50 to 100%

SMILES: O=C(NC1(C(=O)NCC(F)(F)F)CC1)c1ccc(/C(F)=C/C(c2cc(Cl)c(Cl)c(Cl)c2)C(F)(F)F)cc1Cl (centres unmarked) [F28, (Z)-2-Chloro-4-(1,4,4,4-tetrafluoro-3-(3,4,5-trichlorophenyl)but-1-en-1-yl)-N-(1-((2,2,2-trifluoroethyl)carbamoyl)cyclopropyl)benzamide]
- pest or weed control at 50 µg/cm2 [1]: 50 to 100%
- pest or weed control at 50 µg/cm2 [2]: 50 to 100%

SMILES: C[C@@H](NC(=O)c1ccc(/C(F)=C/C(c2cc(Cl)c(Cl)c(Cl)c2)C(C)(F)F)cc1C(F)(F)F)C(=O)NCC(F)(F)F (stereo partly drawn) [F29, N—((R)-1-Oxo-1-((2,2,2-trifluoroethyl)amino)propan-2-yl)-4-((Z)-1,4,4-trifluoro-3-(3,4,5-trichlorophenyl)pent-1-en-1-yl)-2-(trifluoromethyl)benzamide]
- pest or weed control at 50 µg/cm2 [1]: 50 to 100%
- pest or weed control at 50 µg/cm2 [2]: 50 to 100%

SMILES: C[C@@H](NC(=O)c1ccc(/C(F)=C/C(c2cc(Cl)c(Cl)c(Cl)c2)C(F)(F)F)cc1C(F)(F)F)C(=O)NCC(F)F (stereo partly drawn) [F30, N—((R)-1-((2,2-Difluoroethyl)amino)-1-oxopropan-2-yl)-4-((Z)-1,4,4,4-tetrafluoro-3-(3,4,5-trichlorophenyl)but-1-en-1-yl)-2-(trifluoromethyl)benzamide]
- pest or weed control at 50 µg/cm2 [1]: 50 to 100%
- pest or weed control at 50 µg/cm2 [2]: 50 to 100%

SMILES: C[C@@H](NC(=O)c1ccc(/C(F)=C/C(c2cc(Cl)c(Cl)c(Cl)c2)C(F)(F)F)cc1Br)C(=O)NCC(F)F (stereo partly drawn) [F31, 2-Bromo-N—((R)-1-((2,2-difluoroethyl)amino)-1-oxopropan-2-yl)-4-((Z)-1,4,4,4-tetrafluoro-3-(3,4,5-trichlorophenyl)but-1-en-1-yl)benzamide]
- pest or weed control at 50 µg/cm2 [1]: 50 to 100%
- pest or weed control at 50 µg/cm2 [2]: 50 to 100%

SMILES: C[C@@H](NC(=O)c1ccc(/C(F)=C/C(c2cc(Cl)c(Cl)c(Cl)c2)C(F)(F)F)cc1Cl)C(=O)NCC(F)F (stereo partly drawn) [F32, 2-Chloro-N—((R)-1-((2,2-difluoroethyl)amino)-1-oxopropan-2-yl)-4-((Z)-1,4,4,4-tetrafluoro-3-(3,4,5-trichlorophenyl)but-1-en-1-yl)benzamide]
- pest or weed control at 50 µg/cm2 [1]: 50 to 100%
- pest or weed control at 50 µg/cm2 [2]: 50 to 100%

SMILES: CN(CC(F)(F)F)C(=O)CNC(=O)c1ccc(/C(F)=C/C(c2cc(Cl)c(Cl)c(Cl)c2)C(F)(F)F)cc1Cl (centres unmarked) [F47, (Z)-2-Chloro-N-(2-(methyl(2,2,2-trifluoroethyl)amino)-2-oxoethyl)-4-(1,4,4,4-tetrafluoro-3-(3,4,5-trichlorophenyl)but-1-en-1-yl)benzamide]
- pest or weed control at 50 µg/cm2 [1]: 50 to 100%
- pest or weed control at 50 µg/cm2 [2]: 50 to 100%

SMILES: CN(CC(F)(F)F)C(=O)CNC(=O)c1ccc(/C(F)=C/C(c2cc(Cl)c(Cl)c(Cl)c2)C(F)(F)F)cc1Br (centres unmarked) [F48, (Z)-2-Bromo-N-(2-(methyl(2,2,2-trifluoroethyl)amino)-2-oxoethyl)-4-(1,4,4,4-tetrafluoro-3-(3,4,5-trichlorophenyl)but-1-en-1-yl)benzamide]
- pest or weed control at 50 µg/cm2 [1]: 50 to 100%
- pest or weed control at 50 µg/cm2 [2]: 50 to 100%

Reference: patent US10251394B2, “Molecules having pesticidal utility, and intermediates, compositions, and processes, related thereto” (Dow AgroSciences LLC, priority 2016, dated 2019)
